Measurements published in EP2687213B1, “Solid forms comprising (+)-2-[1-(3-ethoxy-4-methoxyphenyl)-2-methylsulfonylethyl]-4-acetylaminoisoindoline-1,3-dione, compositions thereof, and uses thereof” (CELGENE CORPORATION, priority 2008, dated 2009).

What was measured:
Format in all cases: biochemical
Conditions in all cases: from PDE inhibition data of Table 1
[1] = system: bovine PDE1; experiment: PDE1 enzyme assay
[2] = biological target: human PDE2 (Homo sapiens, UniProt O00408); experiment: PDE2 enzyme assay
human PDE2, sequence (O00408 whole entry): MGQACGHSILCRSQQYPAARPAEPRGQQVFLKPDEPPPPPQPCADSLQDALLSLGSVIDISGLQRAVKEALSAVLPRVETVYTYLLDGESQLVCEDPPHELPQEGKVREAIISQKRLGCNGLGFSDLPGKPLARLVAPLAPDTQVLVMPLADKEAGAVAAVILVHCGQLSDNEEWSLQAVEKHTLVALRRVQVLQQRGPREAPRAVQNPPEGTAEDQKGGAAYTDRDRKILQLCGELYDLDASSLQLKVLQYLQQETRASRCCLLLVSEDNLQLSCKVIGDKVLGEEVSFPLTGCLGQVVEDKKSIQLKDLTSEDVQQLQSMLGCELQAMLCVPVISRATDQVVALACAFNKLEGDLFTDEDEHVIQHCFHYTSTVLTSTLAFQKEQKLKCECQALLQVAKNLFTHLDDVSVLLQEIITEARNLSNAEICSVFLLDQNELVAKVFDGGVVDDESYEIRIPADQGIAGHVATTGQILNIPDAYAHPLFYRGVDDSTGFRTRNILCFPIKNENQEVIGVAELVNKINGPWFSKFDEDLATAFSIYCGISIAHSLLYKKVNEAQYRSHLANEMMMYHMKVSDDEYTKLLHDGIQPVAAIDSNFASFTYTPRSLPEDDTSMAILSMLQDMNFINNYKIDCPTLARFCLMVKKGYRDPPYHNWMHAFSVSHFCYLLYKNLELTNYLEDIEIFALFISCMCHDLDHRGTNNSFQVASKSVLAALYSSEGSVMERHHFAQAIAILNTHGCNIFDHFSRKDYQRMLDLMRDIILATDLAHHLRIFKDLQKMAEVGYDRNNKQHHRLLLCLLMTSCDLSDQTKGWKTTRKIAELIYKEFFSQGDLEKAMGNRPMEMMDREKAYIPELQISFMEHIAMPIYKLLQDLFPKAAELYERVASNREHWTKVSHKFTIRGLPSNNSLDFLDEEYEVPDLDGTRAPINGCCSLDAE

[3] = biological target: PDE3 from human platelets (Homo sapiens, UniProt Q14432); experiment: PDE3 enzyme assay
PDE3 from human platelets, sequence (Q14432 whole entry): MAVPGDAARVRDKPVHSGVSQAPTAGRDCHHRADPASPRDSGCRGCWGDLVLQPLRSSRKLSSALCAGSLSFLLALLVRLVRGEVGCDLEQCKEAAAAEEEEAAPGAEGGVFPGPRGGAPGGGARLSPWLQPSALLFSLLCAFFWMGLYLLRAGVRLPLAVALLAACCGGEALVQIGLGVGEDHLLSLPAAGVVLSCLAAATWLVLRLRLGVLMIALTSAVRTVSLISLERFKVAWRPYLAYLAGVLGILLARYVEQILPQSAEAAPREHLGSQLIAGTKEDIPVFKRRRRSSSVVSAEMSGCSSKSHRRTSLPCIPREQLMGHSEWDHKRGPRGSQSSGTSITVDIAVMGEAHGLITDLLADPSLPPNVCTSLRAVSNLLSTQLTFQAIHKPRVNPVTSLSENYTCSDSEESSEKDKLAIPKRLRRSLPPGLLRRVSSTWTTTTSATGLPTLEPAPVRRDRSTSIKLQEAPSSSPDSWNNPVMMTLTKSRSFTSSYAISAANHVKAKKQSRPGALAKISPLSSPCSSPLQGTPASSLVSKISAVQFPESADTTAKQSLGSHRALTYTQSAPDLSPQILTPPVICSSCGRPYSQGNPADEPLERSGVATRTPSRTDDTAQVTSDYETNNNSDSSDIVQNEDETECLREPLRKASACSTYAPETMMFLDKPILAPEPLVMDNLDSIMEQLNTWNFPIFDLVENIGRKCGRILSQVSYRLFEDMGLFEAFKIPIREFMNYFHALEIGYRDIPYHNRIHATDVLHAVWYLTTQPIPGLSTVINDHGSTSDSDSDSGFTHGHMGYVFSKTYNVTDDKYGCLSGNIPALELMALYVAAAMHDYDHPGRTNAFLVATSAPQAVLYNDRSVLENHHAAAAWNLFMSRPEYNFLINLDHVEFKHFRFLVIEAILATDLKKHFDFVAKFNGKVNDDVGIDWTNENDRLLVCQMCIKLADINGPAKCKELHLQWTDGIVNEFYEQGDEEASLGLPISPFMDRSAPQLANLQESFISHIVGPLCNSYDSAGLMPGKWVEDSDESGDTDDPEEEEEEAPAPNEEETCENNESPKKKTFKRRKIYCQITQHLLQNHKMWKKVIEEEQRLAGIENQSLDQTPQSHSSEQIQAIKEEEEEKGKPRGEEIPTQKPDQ

[4] = biological target: PDE5 from human platelets (Homo sapiens, UniProt O76074); experiment: PDE5 enzyme assay
[5] = biological target: T1, PDE6 from bovine retinal rod outer segments (Bos taurus, UniProt P11541+P23439); experiment: PDE6 enzyme assay
T1 construct: PDE6 from bovine retinal rod outer segments; from tissue; host or cells: bovine retinal rod outer segments
T1 sequence (P11541 2-856 limits assumed): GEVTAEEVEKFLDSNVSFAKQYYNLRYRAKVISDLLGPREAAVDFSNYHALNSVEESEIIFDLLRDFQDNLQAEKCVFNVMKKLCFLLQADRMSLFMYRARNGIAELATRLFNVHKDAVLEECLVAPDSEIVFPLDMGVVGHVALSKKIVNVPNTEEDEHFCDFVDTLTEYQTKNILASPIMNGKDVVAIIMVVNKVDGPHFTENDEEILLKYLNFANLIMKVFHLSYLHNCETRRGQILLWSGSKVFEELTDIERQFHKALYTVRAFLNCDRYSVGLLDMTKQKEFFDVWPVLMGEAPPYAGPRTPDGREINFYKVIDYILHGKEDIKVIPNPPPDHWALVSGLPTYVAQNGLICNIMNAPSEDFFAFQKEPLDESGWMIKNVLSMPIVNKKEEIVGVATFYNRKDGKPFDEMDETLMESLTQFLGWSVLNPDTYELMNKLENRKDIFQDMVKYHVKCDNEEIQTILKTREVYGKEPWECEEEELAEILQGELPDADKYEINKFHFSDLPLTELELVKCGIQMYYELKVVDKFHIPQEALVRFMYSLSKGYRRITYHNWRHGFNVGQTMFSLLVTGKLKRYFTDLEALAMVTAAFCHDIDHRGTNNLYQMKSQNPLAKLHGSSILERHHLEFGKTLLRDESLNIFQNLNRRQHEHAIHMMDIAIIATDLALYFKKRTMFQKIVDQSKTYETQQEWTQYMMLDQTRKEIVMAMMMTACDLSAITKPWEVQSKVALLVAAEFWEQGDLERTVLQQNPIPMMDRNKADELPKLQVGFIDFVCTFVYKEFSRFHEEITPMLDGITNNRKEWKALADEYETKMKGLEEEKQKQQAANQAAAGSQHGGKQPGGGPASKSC
T1 sequence (P23439 2-850 limits assumed): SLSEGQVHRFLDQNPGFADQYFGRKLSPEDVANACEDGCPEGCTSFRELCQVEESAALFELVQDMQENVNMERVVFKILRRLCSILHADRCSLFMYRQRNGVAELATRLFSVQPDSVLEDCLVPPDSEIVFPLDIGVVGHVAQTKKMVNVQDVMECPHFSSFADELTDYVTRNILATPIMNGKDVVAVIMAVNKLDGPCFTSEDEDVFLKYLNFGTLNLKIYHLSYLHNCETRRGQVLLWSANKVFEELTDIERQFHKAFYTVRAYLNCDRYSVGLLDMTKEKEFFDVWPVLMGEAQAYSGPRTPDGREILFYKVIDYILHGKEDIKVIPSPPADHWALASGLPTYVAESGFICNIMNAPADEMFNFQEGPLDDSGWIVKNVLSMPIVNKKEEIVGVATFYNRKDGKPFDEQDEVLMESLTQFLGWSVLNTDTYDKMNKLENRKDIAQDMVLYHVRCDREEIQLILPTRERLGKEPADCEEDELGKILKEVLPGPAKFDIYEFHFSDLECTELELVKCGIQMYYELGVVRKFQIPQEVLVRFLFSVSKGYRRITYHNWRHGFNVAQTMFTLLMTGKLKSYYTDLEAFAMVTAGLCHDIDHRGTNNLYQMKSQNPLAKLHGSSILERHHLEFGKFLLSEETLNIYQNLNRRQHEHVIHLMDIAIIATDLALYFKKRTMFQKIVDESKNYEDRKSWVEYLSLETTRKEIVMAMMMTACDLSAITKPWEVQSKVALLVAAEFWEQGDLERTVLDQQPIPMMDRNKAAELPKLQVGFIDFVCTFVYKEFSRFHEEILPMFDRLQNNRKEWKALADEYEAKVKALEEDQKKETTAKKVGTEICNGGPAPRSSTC

[6] = biological target: PDE7 purified from Hut78 human T cells (Homo sapiens, UniProt Q13946); experiment: PDE7 enzyme assay
PDE7 purified from Hut78 human T cells, sequence (Q13946 whole entry): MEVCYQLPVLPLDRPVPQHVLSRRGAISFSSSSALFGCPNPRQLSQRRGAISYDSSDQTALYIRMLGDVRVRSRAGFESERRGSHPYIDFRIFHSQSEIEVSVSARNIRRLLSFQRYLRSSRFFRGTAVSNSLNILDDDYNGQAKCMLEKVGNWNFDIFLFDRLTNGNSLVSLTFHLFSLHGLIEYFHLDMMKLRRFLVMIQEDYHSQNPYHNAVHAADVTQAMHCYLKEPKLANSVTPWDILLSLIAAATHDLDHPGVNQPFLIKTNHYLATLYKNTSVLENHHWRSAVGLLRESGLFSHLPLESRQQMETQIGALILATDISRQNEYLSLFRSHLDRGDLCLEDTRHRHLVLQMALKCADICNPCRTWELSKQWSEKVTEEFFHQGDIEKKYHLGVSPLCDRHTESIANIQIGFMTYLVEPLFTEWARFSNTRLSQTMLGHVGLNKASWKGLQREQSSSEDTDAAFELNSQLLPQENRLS
Protocol: PDE7 is a cAMP-selective PDE expressed mainly in T cells and in skeletal muscle. T cell-derived cytokines such as IL-2 and IFN-γ are potentially regulatable via PDE7 inhibition. […] Compounds were tested against the PDE7 preparation in the presence of 10 nM cAMP as described for PDE4 in Table 1.

| Compound | PDE Specificity Ratio PDE4/PDE1 [1] [fold] | PDE Specificity Ratio PDE4/PDE2 [2] [fold] | PDE Specificity Ratio PDE4/PDE3 [3] [fold] | PDE Specificity Ratio PDE4/PDE5 [4] [fold] | PDE Specificity Ratio PDE4/PDE6 [5] [fold] | PDE Specificity Ratio PDE7 IC50/PDE4 IC50 [6] [fold] |
| --- | --- | --- | --- | --- | --- | --- |
| CCOc1cc([C@H](CS(C)(=O)=O)N2C(=O)c3cccc(NC(C)=O)c3C2=O)ccc1OC [Compound B] | >50 | >260 | >45 | >39000 | >250 |  |
| CCOc1cc(C(CS(C)(=O)=O)N2C(=O)c3cccc(NC(C)=O)c3C2=O)ccc1OC (racemic) [Racemic Compound, 2-[1-(3-Ethoxy-4-methoxyphenyl)-2-methylsulfonylethyl]-4-acetylaminoisoindoline-1,3-dione] | >2700 | >800 | >670 | >12000 |  | 270 |
